Consider 1 compound from ChEMBL document CHEMBL5678811 (Invest New Drugs, 2014).

The subject of data set [1] is MV4-11. In words: Cell cycle arrest in human MV4-11 cells assessed as accumulation of cells at G2/M-phase at 0.16 uM measured after 24 hrs by propidium iodide staining based flow cytometry (reference value: 15.23%). The class given is functional.
A further data set is filed under the species Mus musculus. As to conditions: CD1, dose 50.0 mg/kg, route po, time 22.0 day.
Data set [2] has as its system MV4-11. Kind of data set: Cell cycle arrest in human MV4-11 cells assessed as accumulation of cells at G2/M-phase at 0.04 uM measured after 24 hrs by propidium iodide staining based flow cytometry (reference value: 15.23%). The class given is functional.
The next data set has as its system MCF-10A. Kind of data set: Cell cycle arrest in human MCF-10A cells assessed as accumulation of cells at G1 phase by measuring increase in 2N DNA content measured after 24 hrs by propidium iodide staining based laser-scanning fluorescence cytometry. In kind it is toxicity.
In data set [3] the test system is COLO 205. Particulars: Mus musculus, CD1, dose 50.0 mg/kg, route po, time lower 1.0 hrs, time upper […], TDE = time-dependent effect.
The test system of data set [4] is MV4-11. Kind of data set: Cell cycle arrest in human MV4-11 cells assessed as accumulation of cells at G2/M-phase at 0.08 uM measured after 24 hrs by propidium iodide staining based flow cytometry (reference value: 15.23%). The class given is functional. In general terms: In flow cytometry, cells or beads pass a laser one at a time.
Data set [5] is described as follows: Toxicity in human COLO 205 cells xenografted CD1 nu/nu mouse assessed as body weight loss at 25 to 100 mg/kg, po administered once daily via gavage for 21 days measured twice per week during compound dosing. The class given is organism-based. As to conditions: in vivo, dose 25-100 mg/kg, time 21 day.
The nature of data set [6]: Toxicity in human COLO 205 cells xenografted CD1 nu/nu mouse assessed as decrease in red cell mass at 50 mg/kg, po administered daily via gavage for 2 cycles of 3 weeks on/1 week rest and measured on day 41 to 69 by hematological analysis. In kind it is organism-based. Particulars: in vivo, time 41-69 day.
Data set [7] is described as follows: Toxicity in human COLO 205 cells xenografted CD1 nu/nu mouse assessed as change in cecum histology at 50 mg/kg, po administered daily via gavage for 2 cycles of 3 weeks on/1 week rest and measured on day 41 to 69 by histopathological analysis. Particulars: in vivo, time 41-69 day. In kind it is organism-based.
The test system of data set [8] is COLO 205. Particulars: Mus musculus, CD1, dose 50.0 mg/kg, route po.
For data set [9], the system named is COLO 205. Particulars: Mus musculus, CD1, dose 25-50 mg/kg, route po.
The target in data set [10] is T1, Serine/threonine-protein kinase 17A (Homo sapiens) (UniProt Q9UEE5).
T1 sequence (whole entry): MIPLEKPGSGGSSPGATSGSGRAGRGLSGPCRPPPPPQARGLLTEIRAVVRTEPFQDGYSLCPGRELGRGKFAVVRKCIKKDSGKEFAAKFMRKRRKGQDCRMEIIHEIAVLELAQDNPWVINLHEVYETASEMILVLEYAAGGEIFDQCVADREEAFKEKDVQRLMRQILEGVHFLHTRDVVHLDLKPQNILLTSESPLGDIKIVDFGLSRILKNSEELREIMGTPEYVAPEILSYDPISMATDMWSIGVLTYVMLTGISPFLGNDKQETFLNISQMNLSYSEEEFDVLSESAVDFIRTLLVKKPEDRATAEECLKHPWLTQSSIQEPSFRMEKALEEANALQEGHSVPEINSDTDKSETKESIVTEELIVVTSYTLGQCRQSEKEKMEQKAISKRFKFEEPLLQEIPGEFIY
Particulars: Sf21, dose 200.0 nM.
Description: Inhibition of recombinant human full-length N-terminal 6His-tagged DRAK1 expressed in baculovirus infected Sf21 cells at 200 nM using ZIPtide as substrate relative to control

Data set [11] concerns COLO 205. As to conditions: Homo sapiens, dose 50.0 mg/kg, route po, time 56.0 day.

Each structure is given as a SMILES string. Calls of active or inactive are those of the source. The calls are words filed in the database; no cut-off is given here.

Broadly, the inhibition is the percentage by which the read-out fell short of the control. Regarding `CCN1CCN(Cc2ccc(Nc3ncc(F)c(-c4cc(F)c5nc(C)n(C(C)C)c5c4)n3)nc2)CC1` [ABEMACICLIB], the Activity in the data set with MV4-11 [1] is reported as 2.73%; in the data set with MV4-11 [2], 6.21%; in the data set on MCF-10A, “Toxic”; in the data set with MV4-11 [4], 1.97%; in [5], “Non-Toxic”; in data set [6], “Non-Toxic”. In addition, the Activity entry in data set [7] was “Non-Toxic”. Moreover, in the data set filed under Mus musculus, the inhibition entry is “inactive”. Further, the results for the inhibition entry (in the data set on COLO 205 [3]; in the data set on COLO 205 [9]; in data set [10]) were “Tde”, “Dose-Dependent Effect” and > 90%, respectively. Besides, the inhibition result in the data set on COLO 205 [8] was “Active”. In the data set with COLO 205 [11], the TGI result was “Active”.
